One compound from patent publication US20060173080A1, “Methods of modulating TNF using bupropion” (The Regents of the University of California, priority 2002, published 2006) can be followed below.

“Also recorded” adds a separate entry of the source. Structures can show the parent of a compound that is named as a salt.

The data set concerns CD patients. As to the kind of experiment: Case reports of Crohn's disease patients on bupropion (CDAI, symptoms, flares). The class given is in vivo, human. An excerpt:
Also, multiple toxicity issues are associated with taking medicines such as azathioprine, methotrexate, and steroids over time (Sartor R B. New therapeutic approaches to Crohn;s disease. N Engl J Med 2000;342:1664-1666). In CD, TNF is increased, and TNF is thought to play a central role in CD pathogenesis (Papadakis K A, Targan S R. Role of cytokines in the pathogenesis of inflammatory bowel disease. Annu Rev Med 2000;51:289-298). Monoaminergic and dopaminergic treatments can lower levels of TNF-alpha via increased intracellular adenosine 3′,5′-cyclic monophosphate (cAMP).
person one presented in May of 1999 for treatment of an episode of major depression, superimposed on a chronic mild depressed state (dysthymia). […] They were not usually pain-free during the week, though usually did have several pain-free hours in a given day. […] Inadvertent loss of stool several times a month required daily use of adult protective pads. They were taking fluoxetine 40 mg every day for depression, and mesalamine 500 mg twice a day. CDAI was 202.
After careful review of treatment options, they were started on bupropion (fluoxetine was stopped) with up-titration to 150 mg twice a day. Their abdominal complaints eased over the next months, and the major depression remitted. The baseline dysthymia remained. To better treat the dysthymia, bupropion was raised to 150 mg three times daily with a further lowering of their CDAI. The mesalamine was tapered off. Their CDAI is currently approximately zero. They have one well-formed bowel movement daily and has been without abdominal symptoms or encopresis for 19 months now. They have had no CD flares since starting bupropion. Twice in the last year, they stopped bupropion on their own accord because they felt completely well and felt they didn't need bupropion anymore.
The above-described response to bupropion was consistent with other responses in CD patients. For example, a person with a 20-year history of Crohn's enteritis with multiple surgeries, including 4 small bowel resections. […] The patient was taking fluoxetine to help with pain control. […] Even though they were not able to stop smoking, the patient felt better on bupropion so they decided to continue this medicine with their family doctor's consent. Currently, the patient is taking bupropion 150 mg three times daily. […] Under their doctor's supervision, they have recently tapered their azathioprine from 100 to 50 mg every day without any increase in CDAI.

Regarding `CC(NC(C)(C)C)C(=O)c1cccc(Cl)c1` (racemic) [bupropion, (.±.)-1-(3-chlorophenyl)-2-[(1,1-dimethylethyl)amino]-1-propanone hydrochloride], for the setting “case patients, hydrochloride”, the “CD flares since starting bupropion” value is “no CD flares; also recorded: no CD flares or associated surgeries”. Also, the “time without abdominal symptoms or encopresis” value (person one on bupropion) came out at 19 months. For the same compound, the CDAI entry is on record as “approximately zero” (person one, colonic CD, bupropion 150 mg three times daily, CDAI 202 before bupropion) and “about 45” (person, Crohn's enteritis, bupropion 150 mg three times daily, CDAI approximately 275 before). The “abdominal cramping and blood per rectum after restarting bupropion” value (person one, symptoms recurred on two self-chosen stops) is reported as “remitted within weeks”. In addition, for the setting “person, bupropion 150 mg three times daily”, the “Crohn's symptoms” value is on record as “alleviated completely”. Besides, the “side effects or toxicities” value (two CD cases, over 2 years) is “without significant side effects or toxicities”. Further, for the setting “two cases”, the “remission of CD” value was “near complete and long-lasting (over 2 years) remissions”.
